PubChem BioAssay (NCI)
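Protocol summary: plate cells (96-well), add compound at 5 concentrations, incubate 48 h, interpolate endpoints linearly. TGI denotes the concentration required for complete inhibition of growth.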

Key:
Test in all cases: NCI tumour cell line growth inhibition, 48 h
RXF 393 renal = tested on: RXF 393 renal
UACC-62 melanoma = tested on: UACC-62 melanoma
OVCAR-4 ovarian = tested on: OVCAR-4 ovarian
MDA-MB-435 = tested on: MDA-MB-435
HT29 colon = tested on: HT29 colon
SNB-19 CNS = tested on: SNB-19 CNS
K-562 leukemia = tested on: K-562 leukemia
OVCAR-5 ovarian = tested on: OVCAR-5 ovarian
MCF7 breast = tested on: MCF7 breast
SW-620 colon = tested on: SW-620 colon
IGROV1 ovarian = tested on: IGROV1 ovarian
KM12 colon = tested on: KM12 colon
786-0 renal = tested on: 786-0 renal
SR leukemia = tested on: SR leukemia
HCT-15 colon = tested on: HCT-15 colon
CAKI-1 renal = tested on: CAKI-1 renal
HOP-92 NSCLC = tested on: HOP-92 NSCLC
SF-268 CNS = tested on: SF-268 CNS
RPMI-8226 leukemia = tested on: RPMI-8226 leukemia

Structure (SMILES)	TGI (RXF 393 renal)	TGI (UACC-62 melanoma)	TGI (OVCAR-4 ovarian)	TGI (MDA-MB-435)	TGI (HT29 colon)	TGI (SNB-19 CNS)	TGI (K-562 leukemia)	TGI (OVCAR-5 ovarian)	TGI (MCF7 breast)	TGI (SW-620 colon)	TGI (IGROV1 ovarian)	TGI (KM12 colon)	TGI (786-0 renal)	TGI (SR leukemia)	TGI (HCT-15 colon)	TGI (CAKI-1 renal)	TGI (HOP-92 NSCLC)	TGI (SF-268 CNS)	TGI (RPMI-8226 leukemia)
CCOc1cc2c(cc1O)C=C[C@@H]1[C@@H]2CC[C@]2(C)[C@@H](O)CC[C@@H]12	> 96.1 µM	> 43.1 µM	> 100 µM	1.36 µM	24.3 µM	> 55.4 µM	> 100 µM	> 100 µM	> 75.8 µM	> 35.3 µM	> 75.1 µM	20.9 µM	> 43.4 µM	23.7 µM	20.1 µM	28.9 µM	> 100 µM	> 100 µM	> 100 µM
Cc1cc(-c2nc3ccc(F)cc3s2)ccc1NC(=O)C(N)CCCCN (stereo unspecified)	25.3 µM	24.6 µM	24.6 µM	5.34 µM	13.1 µM	25 µM	8.2 µM	22.5 µM	4.46 µM	7.93 µM	17.6 µM	4.87 µM	8.76 µM	8.18 µM	23.6 µM	24.9 µM	27.7 µM	19 µM	12.5 µM
CC(C)(C)OC(=O)NCC(c1c[nH]c2cc(Br)ccc12)c1c[nH]c2cc(Br)ccc12	32 µM	30.1 µM	32.9 µM	31.9 µM	33.5 µM	46.2 µM	> 100 µM	31.4 µM	34.7 µM	> 100 µM	29.4 µM	37.3 µM	33.5 µM	> 100 µM	30.2 µM	91.5 µM	28.6 µM	31.7 µM	> 100 µM
O=C1/C(=C/c2ccc([N+](=O)[O-])cc2)CCCc2ccccc21		> 100 µM	> 100 µM	> 100 µM	> 100 µM	> 100 µM	> 100 µM	> 100 µM	> 100 µM	> 100 µM	> 100 µM	> 100 µM	> 100 µM	> 100 µM	> 100 µM	> 100 µM	> 100 µM	> 100 µM	> 100 µM
COc1ccc(C/C=C(\C)CCO)cc1	> 100 µM	> 100 µM	> 100 µM	> 100 µM	> 100 µM	> 100 µM	> 100 µM	> 100 µM	> 100 µM	> 100 µM	> 100 µM	> 100 µM	> 100 µM	> 100 µM	> 100 µM	94.3 µM	> 100 µM	> 100 µM	89.8 µM
CCCC(=O)Oc1c2ccsc2c(OC(=O)CCC)c2ccsc12	5.86 µM	2.07 µM	5.7 µM	0.586 µM	12 µM	5.28 µM	8.46 µM	7.36 µM	7.55 µM	8.9 µM	6.87 µM	13.8 µM	8.04 µM	7.32 µM	4.59 µM	11.7 µM	3.06 µM	10.7 µM	5.48 µM
COc1ccc2nc(N/N=C/c3ccc(C)s3)cc(C)c2c1	41.6 µM	35.4 µM	48.7 µM	60.6 µM	25.7 µM	34.8 µM	49 µM	32.6 µM	37.5 µM	> 100 µM	90 µM	39.8 µM	42.6 µM	61 µM	32.4 µM	40.5 µM	43.2 µM	54.7 µM	37.3 µM
CCCCC1Nc2ccccc2-c2ccnc(Cl)c21 (stereo unspecified)	40.8 µM	32.2 µM	91.5 µM	41.7 µM	47.6 µM	77.7 µM	62.8 µM		> 100 µM	> 100 µM	47.9 µM	69 µM	45.2 µM	51 µM	44.4 µM	20.2 µM	40.9 µM	89.2 µM	31.9 µM
Cc1cn(C(CO)OC(CO)CN(O)C2C3CC4CC(C3)CC2C4)c(=O)[nH]c1=O (stereo unspecified)		> 100 µM	> 100 µM	> 100 µM	> 100 µM	> 100 µM	> 100 µM	> 100 µM	> 100 µM	> 100 µM	> 100 µM	> 100 µM	> 100 µM	> 100 µM	> 100 µM	> 100 µM	> 100 µM	> 100 µM	> 100 µM
CCOC(=O)c1ccc(Nc2nc3ccccc3n3cccc23)cc1	49.7 µM	> 100 µM		> 100 µM	> 100 µM	> 100 µM	> 100 µM	> 100 µM	> 100 µM	> 100 µM	> 100 µM	> 100 µM	> 100 µM	> 100 µM	> 100 µM	> 100 µM	> 100 µM	> 100 µM	> 100 µM
COC(=O)c1ccc(Oc2nc3ccc(C(F)(F)F)cc3nc2-c2ccccc2)cc1	> 100 µM	> 100 µM	> 100 µM	> 100 µM	> 100 µM		> 100 µM	> 100 µM	> 100 µM	> 100 µM	> 100 µM	> 100 µM	> 100 µM	> 100 µM	> 100 µM	> 100 µM	> 100 µM	> 100 µM	> 100 µM
C[C@@H](c1ccccc1)N1C[C@@H](c2ccc3c(c2)OCO3)[C@@H]2C(=O)CCC[C@@H]21	> 100 µM	52 µM	> 100 µM	> 100 µM	> 100 µM	> 100 µM	> 100 µM	> 100 µM	71.5 µM		> 100 µM	> 100 µM	> 100 µM	> 100 µM	> 100 µM	> 100 µM	> 100 µM	> 100 µM	92.8 µM
CC(C)CC(C#CCCOC(=O)c1ccccc1)OC(=O)c1ccccc1 (stereo unspecified)	> 10 µM	> 10 µM		> 10 µM	> 10 µM	> 10 µM	> 10 µM	> 10 µM	> 10 µM	> 10 µM	> 10 µM	> 10 µM	> 10 µM	> 10 µM	> 10 µM		> 10 µM	> 10 µM	
CC(=O)OC(OC(C)=O)c1c2ccccc2cc2ccccc12	31 µM	41.7 µM		> 100 µM	28.6 µM	96.3 µM	27.8 µM	75.6 µM	40.7 µM	> 100 µM	55.9 µM	33.4 µM	43.5 µM	56.3 µM	56 µM	> 100 µM	57.5 µM	51.8 µM	87.2 µM
CCCNC(=O)Cn1c2c(c3ccccc31)CCCC2		> 100 µM	> 100 µM	> 100 µM	> 100 µM	> 100 µM	> 100 µM	> 100 µM	> 100 µM	> 100 µM	> 100 µM		> 100 µM	> 100 µM	> 100 µM	> 100 µM	> 100 µM	> 100 µM	> 100 µM
COc1ccc2[nH]c3c(c2c1)CCc1c(OC)cccc1-3		> 100 µM	> 100 µM	> 100 µM	> 100 µM	> 100 µM	> 100 µM	> 100 µM	> 100 µM	> 100 µM	> 100 µM	> 100 µM	> 100 µM	> 100 µM	> 100 µM	> 100 µM	> 100 µM	> 100 µM	> 100 µM
Brc1ccc2nc(-c3cccs3)nc(N3CCN(c4ccccc4)CC3)c2c1		> 100 µM	> 100 µM	> 100 µM	> 100 µM	> 100 µM	> 100 µM	> 100 µM	> 100 µM	> 100 µM	> 100 µM	> 100 µM	> 100 µM	> 100 µM	> 100 µM	> 100 µM	> 100 µM	> 100 µM	> 100 µM
O=c1c2ccccc2ncn1COCc1ccccc1	> 100 µM	> 100 µM	> 100 µM	> 100 µM	> 100 µM	> 100 µM	> 100 µM	> 100 µM	> 100 µM	> 100 µM	> 100 µM	> 100 µM	> 100 µM	> 100 µM	> 100 µM		> 100 µM		
COc1ccccc1N1C(=O)CSC1c1cccc(Oc2ccccc2)c1 (stereo unspecified)	33.6 µM	30.1 µM	39.6 µM	32 µM	46.7 µM	56.1 µM	70.2 µM	50.4 µM	37.1 µM	56.6 µM		75.6 µM	32.5 µM	70.5 µM	37.4 µM	74.5 µM	26.5 µM	36.3 µM	
C=CC(=C)CCC(Br)C(C)(C)Br (stereo unspecified)	> 100 µM	> 100 µM	> 100 µM	> 100 µM	> 100 µM	> 100 µM	> 100 µM	> 100 µM	> 100 µM	> 100 µM	> 100 µM	> 100 µM	> 100 µM	> 100 µM	> 100 µM		> 100 µM	> 100 µM	> 100 µM
Cc1cc(OP2(=O)NCc3ccncc3O2)ccc1Cl (stereo unspecified)	> 100 µM	> 100 µM	> 100 µM	> 100 µM	> 100 µM	> 100 µM	> 100 µM	> 100 µM	> 100 µM	> 100 µM	> 100 µM	> 100 µM	> 100 µM	> 100 µM	> 100 µM	> 100 µM	> 100 µM		> 100 µM
CC1=C/C(=N\NS(=O)(=O)c2ccc([N+](=O)[O-])cc2)CC(C)(C)C1	> 100 µM	> 100 µM		> 100 µM		> 100 µM	> 100 µM	> 100 µM	> 100 µM	> 100 µM	> 100 µM	> 100 µM	> 100 µM	> 100 µM	> 100 µM	> 100 µM	75.6 µM	> 100 µM	> 100 µM
COc1cc(/C=C2\N=C(c3ccccc3)N(c3nc4ccccc4s3)C2=O)cc(OC)c1OC	50.7 µM		68 µM	84.6 µM	> 100 µM	> 100 µM	> 100 µM	> 100 µM	> 100 µM	> 100 µM	> 100 µM	> 100 µM	69.3 µM	42.5 µM	> 100 µM	> 100 µM	74.5 µM	> 100 µM	16.7 µM
O=C(CSc1nc2ccc(I)cc2c(=O)n1Cc1ccccc1)NNC(=S)Nc1ccccc1	> 100 µM	> 100 µM	> 100 µM	> 100 µM	> 100 µM	> 100 µM	> 100 µM	> 100 µM	> 100 µM	> 100 µM		> 100 µM	> 100 µM	23.3 µM	> 100 µM	> 100 µM	> 100 µM	> 100 µM	> 100 µM
NS(=O)(=O)c1ccc(N=Nc2ccc(O)cc2)cc1	> 100 µM		> 100 µM	> 100 µM	> 100 µM	> 100 µM	> 100 µM	> 100 µM	> 100 µM	> 100 µM	> 100 µM	> 100 µM	> 100 µM	> 100 µM	> 100 µM	> 100 µM	> 100 µM	> 100 µM	> 100 µM
CCOC(=O)C(=CNc1ccc(S(N)(=O)=O)cc1)C(=O)OCC	> 100 µM		> 100 µM	> 100 µM	> 100 µM	> 100 µM	> 100 µM	> 100 µM	> 100 µM	> 100 µM	> 100 µM		> 100 µM	> 100 µM	> 100 µM	> 100 µM	> 100 µM	> 100 µM	> 100 µM
